Source: US10266526B2, “Substituted 1,2,3-triazoles as SMYD inhibitors for treating cancer” (EPIZYME, INC., priority 2014, dated 2019)
pIC50: −log10 of the molar value. Where a name gives a salt, the structure may show the parent alone.

target: SMYD3 (Homo sapiens (Human), UniProt Q9H7B4); test: SMYD3 biochemical assay (SMYD3 enzyme assay on MEKK2 protein substrate, 3H-SAM scintillation proximity assay); settings: Table 1A; average of n = 1 to n = 50; read-out: SMYD3 Biochem IC50
From the text: S-adenosylmethionine (SAM), S-adenosylhomocysteine (SAH), Tris, Tween20, dimethylsulfoxide (DMSO), bovine skin gelatin (BSG), and Tris(2-carboxyethyl)phosphine hydrochloride solution (TCEP) were purchased from Sigma-Aldrich at the highest level of purity possible. ^3H-SAM was purchase from American Radiolabeled Chemicals with a specific activity of 80 Ci/mmol. 384-well opaque white OptiPlates and SPA beads (Perkin Elmer, catalog # RPNQ0013) were purchased from PerkinElmer.
N-terminally GST-tagged MEKK2 (MAP3K2) protein corresponding to reference sequence AAF63496.3 was purchased from Life Technologies (catalog # PV4010). This protein was expressed in High Five insect cells and purified to >85% purity. Protein identity was confirmed by MS/MS analysis after proteolytic digestion. The protein sequence used was:
Full-length human SMYD3 isoform 1 (BAB86333) was inserted into a modified pET21b plasmid containing a His6 tag and TEV and SUMO cleavage sites.
E. coli (BL21 codonplus RIL strain, Stratagene) were transformed with plasmid pEPZ553 by mixing competent cells and plasmid DNA and incubating on ice for 30 minutes followed by heat shock at 42° C. for 1 minute and cooling on ice for 2 minutes. Transformed cells were grown and selected on LB agar with 100 μg/mL ampicillin and 17 μg/mL chloramphenicol at 37° C. overnight. A single clone was used to inoculate 200 mL of LB medium with 100 μg/mL ampicillin and 17 μg/mL chloramphenicol and incubated at 37° C. on an orbital shaker at 180 rpm. Once in log growth, the culture was diluted 1:100 into 2 L of LB medium and grown until OD600 was about 0.3 after which the culture was incubated at 15° C. and 160 rpm. Once OD600 reached about 0.4, IPTG was added to a final concentration of 0.1 mM and the cells were grown overnight at 15° C. and 160 rpm. Cells were harvested by centrifugation at 8000 rpm, for 4 minutes at 4° C. and stored at −80° C. for purification.
The column was washed with Buffer B (Buffer A plus 20 mM imidazole) and His-tagged SMYD3 was eluted with Buffer C (Buffer A plus 300 mM imidazole). The His tag, TEV and SUMO cleavage sites were removed generating native SMYD3 by addition of ULP1 protein at a ratio of 1:200 (ULP1:SMYD3). Imidazole was removed by dialysis overnight in Buffer A. The dialyzed solution was applied to a second Nickel column and the native SMYD3 protein was collected from the column flow-through. The flow-through was dialyzed in Buffer D (25 mM Tris, 5% glycerol, 5 mM β-mercaptoethanol, 50 mM NaCl, pH7.8) and ULP1 was removed using a Q sepharose fast flow column.
General Procedure for SMYD3 Enzyme Assays on MEKK2 Protein Substrate
The assays were all performed in a buffer consisting of 25 mM Tris-Cl pH 8.0, 1 mM TCEP, 0.005% BSG, and 0.005% Tween 20, prepared on the day of use. […] DMSO (1 ul) was added to Columns 11, 12, 23, 24, rows A-H for the maximum signal control and 1 ul of SAH, a known product and inhibitor of SMYD3, was added to columns 11, 12, 23, 24, rows I-P for the minimum signal control. A cocktail (40 ul) containing the SMYD3 enzyme was added by Multidrop Combi (Thermo-Fisher). The compounds were allowed to incubate with SMYD3 for 30 min at room temperature, then a cocktail (10 ul) containing SAM and MEKK2 was added to initiate the reaction (final volume=51 ul). […] The assays were stopped by the addition of non-radiolabeled SAM (10 ul) to a final concentration of 100 uM, which dilutes the ^3H-SAM to a level where its incorporation into MEKK2 is no longer detectable. Radiolabeled MEKK2 was detected using a scintillation proximity assay (SPA). 10 uL of a 10 mg/mL solution of SPA beads in 0.5 M citric acid was added and the plates centrifuged at 600 rpm for 1 min to precipitate the radiolabeled MEKK2 onto the SPA beads.

SMYD3, sequence (Q9H7B4 whole entry): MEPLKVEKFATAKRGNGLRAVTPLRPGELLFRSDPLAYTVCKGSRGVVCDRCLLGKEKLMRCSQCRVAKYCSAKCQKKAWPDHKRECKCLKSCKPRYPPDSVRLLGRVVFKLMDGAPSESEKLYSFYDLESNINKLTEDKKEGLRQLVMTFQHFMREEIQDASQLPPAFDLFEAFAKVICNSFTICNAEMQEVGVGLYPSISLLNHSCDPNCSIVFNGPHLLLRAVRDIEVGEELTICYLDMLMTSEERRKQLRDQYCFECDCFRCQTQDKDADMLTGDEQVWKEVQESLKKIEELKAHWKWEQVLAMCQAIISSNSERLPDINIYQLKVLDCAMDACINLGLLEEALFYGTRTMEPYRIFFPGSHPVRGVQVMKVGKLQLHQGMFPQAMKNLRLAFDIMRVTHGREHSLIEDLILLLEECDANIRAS

| SMILES | pIC50 |
| --- | --- |
| C[C@@H]1C[C@@H](NC(=O)c2ccccc2)CCN1C(=O)C1CCC(N)CC1 (mixture of isomers) [compound 557, (±)-trans-N-(1-(4-aminocyclohexane-1-carbonyl)-2-methylpiperidin-4-yl)benzamide] | < 5.00 |
| C[C@@H]1C[C@H](NC(=O)c2ccccc2)CCN1C(=O)C1CCC(N)CC1 (mixture of isomers) [compound 558, (±)-cis-N-(1-(4-aminocyclohexane-1-carbonyl)-2-methylpiperidin-4-yl)benzamide] | < 5.00 |
| C[C@@H]1C[C@@H](NC(=O)c2ccccc2)CCN1S(=O)(=O)CCCN (racemic) [compound 563, (±)-trans-N-(1-((3-aminopropyl)sulfonyl)-2-methylpiperidin-4-yl)benzamide] | < 5.00 |
| C[C@H]1C[C@@H](NC(=O)c2ccccc2)CCN1C(=O)C1CCC(N)CC1 (mixture of isomers) [compound 567, (±)-cis-N-(1-(4-aminocyclohexane-1-carbonyl)-2-methylpiperidin-4-yl)benzamide] | < 5.00 |
| CCc1cccc(C(=O)N[C@@H]2CCN(S(=O)(=O)CCCN)[C@H](C)C2)c1 (racemic) [compound 569, (±)-cis-N-(1-((3-aminopropyl)sulfonyl)-2-methylpiperidin-4-yl)-3-ethylbenzamide] | 5.10 |
| C[C@H]1C[C@H](NC(=O)c2ccccc2)CCN1C(=O)C1CCC(N)CC1 (mixture of isomers) [compound 571, (±)-trans-N-(1-(4-aminocyclohexane-1-carbonyl)-2-methylpiperidin-4-yl)benzamide] | < 5.00 |
| CCc1cccc(C(=O)N[C@H]2CCN(S(=O)(=O)CCCN)[C@H](C)C2)c1 (racemic) [compound 573, (±)-trans-N-(1-((3-aminopropyl)sulfonyl)-2-methylpiperidin-4-yl)-3-ethylbenzamide] | < 5.00 |
| C[C@@H]1C[C@H](NC(=O)c2ccccc2)CCN1S(=O)(=O)CCCN (stereo in doubt) [compound 564, (±)-cis-N-(1-((3-aminopropyl)sulfonyl)-2-methylpiperidin-4-yl)benzamide] | < 5.00 |
| C[C@H]1C[C@@H](NC(=O)c2ccccc2)CCN1S(=O)(=O)CCCN (stereo in doubt) [compound 570, (±)-cis-N-(1-((3-aminopropyl)sulfonyl)-2-methylpiperidin-4-yl)benzamide] | < 5.00 |
| NCCCC(=O)N1CCC(NC(=O)c2ncn[nH]2)CC1 [Cpd. No. 560, N-(1-(4-aminobutanoyl)piperidin-4-yl)-1H-1,2,4-triazole-5-carboxamide] | < 5.00 |

same assay, conditions: read-out: SMYD3 Biochem IC50 (μM)*

| SMILES | IC50 [µM] |
| --- | --- |
| Cc1cc(C(=O)N[C@H]2CC[C@H](N)CC2)n(Cc2ccccc2)n1 [Cpd. No. 29, N-((1r,4r)-4-aminocyclohexyl)-1-benzyl-3-methyl-1H-pyrazole-5-carboxamide Hydrochloride] | 14 |
| CC(NC(=O)c1ccc2c(c1)CC(=O)N2)C1CCN(C(=O)[C@H](C)N)CC1 (stereo partly drawn) [Cpd. No. 86, N-(1-(1-((S)-2-aminopropanoyl)piperidin-4-yl)ethyl)-2-oxoindoline-5-carboxamide Hydrochloride] | 1.43 |
| CC(NC(=O)c1ccc2[nH]c(=O)[nH]c2c1)C1CCN(C(=O)[C@H](C)N)CC1 (stereo partly drawn) [Cpd. No. 93, N-(1-(1-((S)-2-aminopropanoyl)piperidin-4-yl)ethyl)-2-oxo-2,3-dihydro-1H-benzo[d]imidazole-5-carboxamide] | 6.76 |
| CC(NC(=O)c1ccc2[nH]c(=O)oc2c1)C1CCN(C(=O)[C@H](C)N)CC1 (stereo partly drawn) [Cpd. No. 94, N-(1-(1-((S)-2-aminopropanoyl)piperidin-4-yl)ethyl)-2-oxo-2,3-dihydrobenzo[d]oxazole-6-carboxamide Hydrochloride] | 3.94 |
| O=C1Cc2cc(C(=O)NCC3CCNCC3)ccc2N1 [Cpd. No. 100, 2-oxo-N-(piperidin-4-ylmethyl)indoline-5-carboxamide Hydrochloride] | 20 |
| CC(=O)Nc1ccc(S(=O)(=O)N2CCC(NC(=O)c3cccnc3)CC2)cc1 [compound 3, N-(1-((4-acetamidophenyl)sulfonyl)piperidin-4-yl)nicotinamide] | > 100 |
